From US9089605B2, “Quinone derivatives, pharmaceutical compositions, and uses thereof” (Indiana University Research and Technology Corporation, priority 2007, dated 2015)
“Also recorded” adds a separate entry of the source.

Tests used:
[1] = Qualitative solubility in solvents; type: physicochemical; details: listed solvents
[2] = molecular target: avidin (Gallus gallus, UniProt P02701); details: cited from earlier work
Sequence of avidin (P02701 25-152, species assumed): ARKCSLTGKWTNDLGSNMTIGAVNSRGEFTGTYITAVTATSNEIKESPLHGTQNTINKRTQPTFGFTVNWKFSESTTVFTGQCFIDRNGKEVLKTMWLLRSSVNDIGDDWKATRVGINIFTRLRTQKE

| SMILES | solubility (qualitative) [1] | melting point [°C] | solubility (qualitative) ([1]; listed as 93) | avidin binding weaker than biotin [2] |
| --- | --- | --- | --- | --- |
| C[C@@H]1NC(=O)N[C@@H]1CCCCCC(=O)NCCCCCCNC(=O)OC(C)(C)C [Compound 111, N—(N′-tert-butoxycarbonyl-6-aminohexyl)-6-[(4R,5S)-5-methyl-imidazolidin-2-on-4-yl]hexanamide] | Insoluble: EtOAc, Et2O, H2O, NaOH aq; also recorded: Soluble: acetone, CH2Cl2 | – | – | – |
| CC(C)(C)OC(=O)NCCCCCCNC(=O)CCCC[C@H]1[C@H]2NC(=O)N[C@H]2CS1(=O)=O [Compound 110, N—(N′-tert-butoxycarbonyl-6-aminohexyl)-5-((1R,5S,6S)-3,7,7-trioxo-7-thia-2,4-diazabicyclo[3.3.0]oct-6-yl)pentanamide] | Insoluble: CH2Cl2, acetone, NaOH aq; also recorded: Mildly Soluble MeOH, EtOH; also recorded: Soluble: DMSO | 213 to 215 | – | – |
| C[C@@H]1NC(=O)N[C@@H]1CCCCCC(=O)O [Desthiobiotin, 6-[(4R,5S)-5-methyl-imidazolidin-2-on-4-yl]hexanoic acid, reference compound] | – | – | Insoluble: CH2Cl2, H2O, acetone; also recorded: Soluble: NaOH aq | – |
| O=C(O)CCCC[C@H]1[C@H]2NC(=O)N[C@H]2CS1(=O)=O [Compound 89, 5-((1R,5S,6S)-3,7,7-trioxo-7-thia-2,4-diazabicyclo[3.3.0]oct-6-yl)pentanoic acid] | Insoluble in CH2Cl2, acetone, MeOH, water; also recorded: Soluble in DMSO and NaOH aq | 255 | – | approximately 3 fold |
